Test results reported in paper PMC6631349 (Xenobiotica; the fate of foreign compounds in biological …, 2014).

What was measured:
UGTs = conditions: ref Dragacci et al. (1987); cited from earlier work
UGT isoforms = assay: Initial screening towards all UGT isoforms; assay type: biochemical, human; conditions: about 50 μM; isoforms not given
UGT1A6 [1] = target: T1, UGT1A6 (Homo sapiens, UniProt P19224); conditions: 50 μM
T1 sequence (P19224 27-532): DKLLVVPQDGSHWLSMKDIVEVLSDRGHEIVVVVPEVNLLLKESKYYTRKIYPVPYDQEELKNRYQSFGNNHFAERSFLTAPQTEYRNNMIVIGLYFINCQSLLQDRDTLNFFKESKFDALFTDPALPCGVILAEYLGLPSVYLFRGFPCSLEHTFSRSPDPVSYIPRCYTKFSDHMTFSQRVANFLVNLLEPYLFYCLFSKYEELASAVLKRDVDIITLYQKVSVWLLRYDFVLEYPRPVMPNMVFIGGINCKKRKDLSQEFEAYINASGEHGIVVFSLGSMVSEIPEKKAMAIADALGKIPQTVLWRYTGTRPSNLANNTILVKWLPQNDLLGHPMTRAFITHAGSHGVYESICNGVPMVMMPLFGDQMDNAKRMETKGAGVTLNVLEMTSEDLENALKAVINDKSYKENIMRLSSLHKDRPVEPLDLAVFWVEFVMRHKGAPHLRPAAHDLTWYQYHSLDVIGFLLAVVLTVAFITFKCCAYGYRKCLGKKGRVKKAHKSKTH

UGT1A8 [2] = target: T2, UGT1A8 (Homo sapiens, UniProt Q9HAW9); conditions: 50 μM
T2 sequence (Q9HAW9 26-530): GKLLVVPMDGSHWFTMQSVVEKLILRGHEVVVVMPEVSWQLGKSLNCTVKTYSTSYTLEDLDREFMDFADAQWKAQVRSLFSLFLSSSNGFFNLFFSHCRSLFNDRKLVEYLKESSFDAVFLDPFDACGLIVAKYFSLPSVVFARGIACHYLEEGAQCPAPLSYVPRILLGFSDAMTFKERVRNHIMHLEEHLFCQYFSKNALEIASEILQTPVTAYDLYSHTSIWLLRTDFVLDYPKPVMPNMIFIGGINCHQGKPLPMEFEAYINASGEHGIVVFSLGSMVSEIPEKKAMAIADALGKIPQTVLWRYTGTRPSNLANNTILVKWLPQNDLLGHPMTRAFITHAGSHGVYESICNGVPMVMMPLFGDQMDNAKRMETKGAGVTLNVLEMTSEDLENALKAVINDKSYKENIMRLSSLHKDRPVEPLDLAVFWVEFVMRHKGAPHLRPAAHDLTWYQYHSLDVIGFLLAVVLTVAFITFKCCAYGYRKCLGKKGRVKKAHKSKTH

UGT2B7 = target: T3, UGT2B7 (Homo sapiens, UniProt P16662); conditions: 50 μM
T3 sequence (P16662 24-529): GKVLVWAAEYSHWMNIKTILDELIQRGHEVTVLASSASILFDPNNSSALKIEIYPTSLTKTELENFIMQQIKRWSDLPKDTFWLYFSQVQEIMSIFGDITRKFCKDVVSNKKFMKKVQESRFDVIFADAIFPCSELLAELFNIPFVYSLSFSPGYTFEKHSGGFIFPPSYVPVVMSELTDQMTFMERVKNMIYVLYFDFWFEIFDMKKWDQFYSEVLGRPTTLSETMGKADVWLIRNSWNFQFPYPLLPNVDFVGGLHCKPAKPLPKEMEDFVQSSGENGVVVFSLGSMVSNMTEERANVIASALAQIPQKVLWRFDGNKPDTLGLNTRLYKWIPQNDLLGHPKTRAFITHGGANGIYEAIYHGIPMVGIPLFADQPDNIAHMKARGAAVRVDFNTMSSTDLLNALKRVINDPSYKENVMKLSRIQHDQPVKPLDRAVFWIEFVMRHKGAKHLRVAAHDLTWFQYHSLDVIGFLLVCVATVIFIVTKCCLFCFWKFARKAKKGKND

[3] = system: multiple UGT isoforms, including UGT1A1, UGT1A3, UGT1A4, UGT1A7, UGT1A10, UGT2B7 and UGT2B15; conditions: ref Fang et al., 2013b; cited from earlier work
UGT1A4 = target: T4, UGT1A4 (Homo sapiens, UniProt P22310); assay: UGT1A4-catalyzed trifluoperazine; conditions: recombinant human UGT1A4, probe trifluoperazine (TFP), 40 μM
T4 sequence (P22310 29-534): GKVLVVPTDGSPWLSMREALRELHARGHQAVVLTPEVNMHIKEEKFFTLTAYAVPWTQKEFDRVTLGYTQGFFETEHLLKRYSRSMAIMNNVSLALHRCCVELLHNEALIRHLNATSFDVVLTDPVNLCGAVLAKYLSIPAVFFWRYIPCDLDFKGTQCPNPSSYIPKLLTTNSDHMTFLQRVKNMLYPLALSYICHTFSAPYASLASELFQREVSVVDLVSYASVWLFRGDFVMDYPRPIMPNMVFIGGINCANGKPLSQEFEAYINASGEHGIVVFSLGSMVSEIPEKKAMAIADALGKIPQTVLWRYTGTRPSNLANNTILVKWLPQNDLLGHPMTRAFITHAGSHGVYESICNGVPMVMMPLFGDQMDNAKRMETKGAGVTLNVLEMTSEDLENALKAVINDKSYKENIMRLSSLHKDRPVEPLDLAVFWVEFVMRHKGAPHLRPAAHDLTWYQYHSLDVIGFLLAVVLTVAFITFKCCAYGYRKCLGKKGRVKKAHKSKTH

UGT1A3 = conditions: ref Fang et al., 2014b; cited from earlier work
UGT1A6 [4] = target: T1, UGT1A6; conditions: Dixon and Lineweaver-Burk plots; 4-MU glucuronidation
UGT1A8 [5] = target: T2, UGT1A8; conditions: Dixon and Lineweaver-Burk plots; 4-MU glucuronidation

## CCCCCCCC/C=C\CCCCCCCC(=O)OC[C@@H](O)COP(=O)([O-])OCC[N+](C)(C)C [LPC 18:1]
UGTs
  increase for UGTs' activity (maximal regulation capability): approximately 4 fold
UGT isoforms
  inhibition of activity of UGT isoforms: more than 90%
UGT1A6 [1]
  inhibition percentage of UGT1A6 activity: 97.5%
UGT1A8 [2]
  inhibition percentage of UGT1A8 activity: 98.7%
UGT2B7
  inhibition percentage of UGT2B7 activity: 87.3%

## C[C@H](CCC(=O)NCCS(=O)(=O)O)[C@H]1CC[C@H]2[C@@H]3CC[C@@H]4C[C@H](O)CC[C@]4(C)[C@H]3CC[C@]12C [TLCA, taurolithocholic acid]
[3]
  inhibitory effects towards multiple UGT isoforms (in words): strong inhibitory effects

## CCCCC/C=C\C/C=C\CCCCCCCC(=O)O[C@H](COC(=O)CCCCCCCCCCCCCCCCC)COP(=O)([O-])OCC[N+](C)(C)C [PC 18:0, 18:2, 1-stearoyl-2-linoleoyl-sn-glycero-3-phosphocholine]
UGT1A4
  activity at 20 min, 50 μM: 54.3%

## CCCCCCCC/C=C\CCCCCCCC(=O)OC[C@H](COP(=O)([O-])OCC[N+](C)(C)C)OC(=O)CCCCCCCCCCCCCCC [PC 18:1, 16:0, 1-oleoyl-2-palmitoyl-sn-glycero-3-phosphocholine]
UGT1A4
  activity at 20 min, 50 μM: 52.6%

## CCCCCCCC/C=C\CCCCCCCC(=O)O[C@H](COC(=O)CCCCCCCCCCCCCCC)COP(=O)([O-])OCC[N+](C)(C)C [PC 16:0, 18:1, 1-palmitoyl-2-oleoyl-sn-glycero-3-phosphocholine]
UGT1A4
  activity at 20 min, 50 μM: 51.8%

## CCCCCCCC/C=C\CCCCCCCC(=O)OC[C@H](COP(=O)([O-])OCC[N+](C)(C)C)OC(=O)CCCCCCCCCCCCCCCCC [PC 18:1, 18:0, 1-oleoyl-2-stearoyl-sn-glycero-3-phosphocholine]
UGT1A4
  activity at 20 min, 50 μM: 60.4%

## CCCCC/C=C\C/C=C\C/C=C\C/C=C\CCCC(=O)O[C@H](COC(=O)CCCCCCCCCCCCCCCCC)COP(=O)([O-])OCC[N+](C)(C)C [PC 18:0, 20:4, 1-stearoyl-2-arachidonoyl-sn-glycero-3-phosphocholine]
UGT1A4
  activity at 20 min, 50 μM: 52.1%

## C[C@H](CCC(=O)NCC(=O)O)[C@H]1CC[C@H]2[C@@H]3[C@H](O)C[C@@H]4C[C@H](O)CC[C@]4(C)[C@H]3C[C@H](O)[C@]12C [GCA, glycocholic acid]
UGT1A3
  effect on the activity of UGT1A3 (in words): allosteric activation

## C[C@H](CCC(=O)O)[C@H]1CC[C@H]2[C@@H]3[C@H](O)C[C@@H]4C[C@H](O)CC[C@]4(C)[C@H]3C[C@H](O)[C@]12C [CA, cholic acid]
UGT1A3
  effect on the activity of UGT1A3 (in words): allosteric activation

## CCCCCCCC/C=C\CCCCCCCC(=O)OC[C@H](COP(=O)([O-])OCC[N+](C)(C)C)OC(=O)CCCCCCCCCCCCC [PC 18:1, 14:0, 1-oleoyl-2-myristoyl-sn-glycero-3-phosphocholine]
UGT1A4
  activity at 20 min, 50 μM: 49.8%

## CCCCCCCCCCCCCCCCCC(=O)O[C@H](COC(=O)CCCCCCCCCCCCCCC)COP(=O)([O-])OCC[N+](C)(C)C [PC 16:0, 18:0, 1-palmitoyl-2-stearoyl-sn-glycero-3-phosphocholine]
UGT1A4
  activity at 20 min, 50 μM: 90%

## CCCCCCCCCCCCCCCC(=O)OC[C@@H](O)COP(=O)([O-])OCC[N+](C)(C)C [LPC 16:0]
UGT isoforms
  inhibition of activity of UGT isoforms: more than 90%

## CCCCCCCCCCCCCCCC(=O)OC[C@H](COP(=O)([O-])OCC[N+](C)(C)C)OC(=O)CCCCCCCCCCCCC [PC 16:0, 14:0, 1-palmitoyl-2-myristoyl-sn-glycero-3-phosphocholine]
UGT1A4
  activity at 20 min, 50 μM: 63.8%

## CCCCCCCCCCCCCCCC(=O)OC[C@H](COP(=O)([O-])OCC[N+](C)(C)C)OC(C)=O [PC 16:0, 2:0, 1-palmitoyl-2-acetyl-sn-glycero-3-phosphocholine]
UGT isoforms
  inhibition of activity of UGT isoforms: more than 90%
UGT1A6 [4]
  inhibition kinetic type towards UGT1A6: competitive inhibition
UGT1A8 [5]
  inhibition kinetic type towards UGT1A8: non-competitively inhibited
UGT1A4
  activity at 20 min, 50 μM: 5.5%
  inhibition at 20 min, 50 µM: 94.5%
